This experiment in a line: Concentration required for the inhibition of influenza neuraminidase activity by 50%. On the set-up: species or system unidentified influenza virus.

Structures are written as SMILES.

On to `CCC(CC)O[C@@H]1C(SC)=C(C(=O)O)C[C@H](N)[C@H]1NC(C)=O`, for which 3.4 µM corresponded to half-maximal inhibition (IC50).

In turn, `CCC(CC)O[C@@H]1C(C)=C(C(=O)O)C[C@H](N)[C@H]1NC(C)=O` came in with an IC50 of 2.3 µM.

For `CCC(CC)O[C@@H]1C(Cl)=C(C(=O)O)C[C@H](N)[C@H]1NC(C)=O`, half-maximal inhibition (IC50) required 3.1 µM.

Compound `CCC(CC)O[C@@H]1C=C(C(=O)O)C[C@H](N)[C@H]1NC(C)=O` [OSELTAMIVIR CARBOXYLATE] showed a half-maximal inhibitory concentration (IC50) of 0.0014 µM.

By IC50 is commonly meant the point on the concentration scale where inhibition reaches its midpoint. A high value points to weaker potency.

The values are drawn from ChEMBL document CHEMBL1130482, “Synthesis and activity of C2-substituted analogs of influenza neuraminidase inhibitor GS 4071” (Bioorg Med Chem Lett, 1997).
